Assay results as given in patent US8618074B2, “GPCR enhanced neuroprotection to treat brain injury” (Board of Regents of the University of Texas System, priority 2007, dated 2013).

Columns and labels:
Format in all cases: cell-based, mouse
[1] = test system: astrocytes; test: Intracellular ATP determination (luciferin-luciferase)
Procedure: Intracellular ATP was measured using a luciferin-luciferase kit (Invitrogen, #22066). Plated astrocytes were trypsinized and washed 3× with PBS buffer (GIBCO #14190). An aliquot of cells was set aside to measure the cell density with a hemocytometer. The cells were then suspended in a lysate buffer (4 mM EDTA and 100 mM Tris, pH 7.75) and immediately heated to 100° C. for 5 minutes to minimize enzymatic changes in ATP levels. The supernatant was collected after a 10,000 g centrifugation for 1 minute and used with the luciferin/luciferase kit according to the manufacturer's instructions. Luminescence was measured with a Synergy™ HT Multi-Detection Microplate Reader (BioTek). ATP levels were normalized by cell density.
Our next approach to investigate the role of mitochondrial metabolism was to directly measure ATP levels in cultures astrocytes using a luciferin-luciferase assay (Invitrogen). Astrocytes were cultured as described above, trypsinized and washed with buffer. The cells were then suspended in a lysate buffer and immediately heated to 100° C. (5 min) to minimize enzymatic changes in ATP levels. After centrifugation, the ATP dependent luminescence of supernatant was measured with a microplate reader (Biotek). FIG. 5C depicts histograms of the direct measurement of intracellular ATP levels relative to untreated cells (control), P2Y-R stimulated (MeADP), then the same measurements in the presence of oligomycin (oligo) or ruthenium 360 (Ru360). We estimated that the resting intracellular ATP concentration in cultured astrocytes was 0.31±0.14 μM ATP/10^4 cells (n=3). […] Finally, we tested whether ruthenium 360 (Ru360; Calbiochem), a polycation that inhibits the electrogenic mitochondrial Ca^2+ uniporter, affected mitochondrial ATP production.

[2] = test system: astrocytes; test: O2 consumption assay (Clark electrode respirometry)
Procedure: O2 consumption was monitored with a Clark electrode (Mitocell S200 micro respirometry system; Strathkelvin Instruments). Astrocytes (500 μl at 10^5 cells/ml) were loaded into a 500 μl MT200A Respirometer Chamber, suspended by a fixed-speed solid-state magnetic stirrer inside the chamber and maintained at 37° C. by a circulating water bath. O2 was monitored for 4 minutes before injecting 5 μl of ATP (200 μM) into the chamber. O2 consumption was then monitored for another 4 minutes. Changes in O2 levels were calculated by respirometry software. For control recordings, 5 μl of buffer was injected into chamber. Oligomycin astrocytes were treated with oligomycin (0.01 μM) for 30 minutes before trypsinization and loading into chamber.
To further investigate the importance of mitochondrial metabolism on the protective effect of P2Y-R activation, we first measured the rate of O2 consumption for astrocytes with and without P2Y-R activation. Primary cultures of astrocytes were grown to ˜70% confluency, gently removed by trypsin EDTA and resuspended in PBS buffer. Astrocytes (10^5 cells/ml) were then loaded into a 500 μl Respirometer Chamber MT200A) and maintained at 37° C. by a circulating water bath. FIG. 5A depicts plots of O2 levels in suspended astrocytes as labeled. FIG. 5B depicts a histogram showing the average change in O2 consumption with 2 μM ATP compared to untreated cells (control). Bars on the right show O2 consumption of Astrocytes are preloaded 0.01 uM Oligomycin (30 minutes).

[3] = test system: astrocytes; test: Confocal Ca2+ imaging of astrocytes on bath application of ATP; settings: bath application of ATP 1 μM; cultured young and old astrocytes
Source text: The next physiological response that we investigated during aging was intracellular Ca^2+ signaling. Metabotropic purinergic receptors (P2Y-Rs) are well known to generate robust Ca^2+ signals in astrocytes. Our initial bias was that we would observe reduced Ca^2+ responses in astrocytes cultured from old mice. […] Ca^2+ measurements were made using standard confocal imaging of Ca^2+ sensitive fluorescent dyes, which loaded equally well for both young and old astrocytes. […] The first surprise finding was that a higher percentage of old astrocytes (more than half) responded to exogenously applied ATP. […] However, we can account for these observed enhancements to cytosolic Ca^2+ signaling in old astrocytes by a reduced ability of mitochondria to sequester Ca^2+ during aging. […] The ability of mitochondria to sequester Ca^2+, and thereby modulate IP3-induced Ca^2+ release, is critically dependent on the mitochondrial membrane potential (ΔΨ) and close proximity of mitochondria to the Ca^2+ release site. This proximity allows mitochondria to sense greater Ca^2+ concentrations than those present in the bulk cytosolic compartment. Consequently, a reduction in ΔΨ with age will reduce mitochondrial Ca^2+ buffering, thereby leading to increased cytosolic Ca^2+ release and faster Ca^2+ dynamics.

[4] = test system: astrocytes; test: Mitochondrial membrane potential ΔΨ estimated as log(Fmito/Fcyto) with TMRE; settings: treating astrocytes for 10 minutes
Procedure: Mitochondrial membrane potentials (ΔΨs) was measured as previously described using the potential sensitive dye tetra-methyl rhodamine ethyl ester (TMRE, Molecular Probes, #T-669) (Lin and Lechleiter, 2002). Images were acquired with a 60× oil 1.4 NA objective on a Nikon PCM2000 confocal microscope custom adapted for two-photon imaging. A Ti-sapphire Coherent Mira 900 Laser pumped with a 5W Verdi laser (Coherent Inc., Santa Clara, Calif.) was used to excite TMRE at 800 nm A neutral-density filter wheel was used to attenuate the laser intensity so that no detectable photobleaching of TMRE was observed.
We confirmed this by directly measuring the effect of ATP, ATP plus XeC and IP3-BM treatments on ΔΨ. Cultured cells were labeled with TMRE (200 nM) and imaged with a two-photon microscope as described above. ΔΨ was estimated as the log (Fmito/Fcyto) where Fmito is the peak fluorescent intensity observed in single mitochondria (Farkas et al., 1989; Lin et al., 2005). The mean values of individual mitochondria from a single cell were used for the mitochondrial potential estimate. Fcyto represents the lowest value of TMRE fluorescence observed within the boundaries of the same cell. […] FIG. 5E depicts a histogram plot showing average mitochondrial membrane potentials before and after treatment. The mean resting ΔΨs for untreated (Buffer), ATP-treated, ATP plus XeC-treated and IP3-BM-treated were 1.84+0.01 (n=78 mitochondria, pooled from 2 experiments), 1.84+0.01 (n=85 mitochondria), 1.85+0.01 (n=80 mitochondria) and 1.86+0.01 (n=48 mitochondria), respectively. Astrocyte cultures were then exposed to their respective treatments and the same fields of mitochondria were imaged 10 minutes later.

In the case of `CSc1nc(N)c2ncn([C@@H]3O[C@H](COP(=O)(O)OP(=O)(O)O)[C@@H](O)[C@H]3O)c2n1` [2-MeSADP], the “intracellular ATP levels” value ([1]; 2-MeSADP 2 μM for 10 minutes) is reported as 0.39±0.16 μM ATP/10^4 cells.

In the case of `CC[C@H]1/C=C/C=C/C[C@@H](C)[C@H](O)[C@@](C)(O)C(=O)[C@@H](C)[C@H](O)[C@@H](C)C(=O)[C@@H](C)[C@H](O)[C@@H](C)/C=C/C(=O)O[C@@H]2[C@H](C)[C@H](CC1)O[C@]1(CC[C@H](C)[C@H](C[C@@H](C)O)O1)[C@H]2C` [oligomycin], the “rate of O2 consumption” value ([2]; oligomycin 0.01 μM 30 minutes + extracellular ATP) is reported as 1.19 ± 0.27 nmol/min, the “rate of O2 consumption” value ([2]; oligomycin 0.01 μM, 30 minutes) is reported as 0.97 ± 0.21 nmol/min and the “effect on P2Y1-R (2-MeSADP) mediated increases in ATP” value ([1]; oligomycin 0.01 μM 30 min pretreatment + 2-MeSADP) is reported as “completely inhibited”. The “resting levels of ATP, % of control” value ([1]; oligomycin 0.01 μM, 30 min) was 82.6%±3.2 % of control.

For `Nc1ncnc2c1ncn2[C@@H]1O[C@H](COP(=O)(O)OP(=O)(O)OP(=O)(O)O)[C@@H](O)[C@H]1O` [ATP], the “Ca2+ oscillations” value [3] was “stimulated Ca^2+ oscillations”, the “ΔΨ (log Fmito/Fcyto) after treatment” value [4] was 1.98±0.01 and the “rate of O2 consumption” value ([2]; bolus of ATP, 2 μM final concentration) was 3.67 ± 0.3 nmol/min.
